According to patent US9056067B2, “Pharmaceutical composition for enhancing immunity, and extract of Poria” (Sinphar Pharmaceutical Co., Ltd., priority 2003, dated 2015):

Tested on: immune cells (T cells/B cells)
Assay: Immunity response tests (overall statement)
Type: in vivo, mice
Settings: Table 2 to Table 10
Experimental: The Poria extract and the purified compounds from the Poria extract by chromatography prepared according to the methods of the present invention were tested by various immunity response experiments listed in the following.

Compound | Dosage at which potent | Immunity enhancement in immune cells (T cells/B cells) (in words)
C=C(CC[C@@H](C(=O)O)[C@H]1[C@H](O)C[C@@]2(C)C3=CC[C@H]4C(C)(C)C(=O)CC[C@]4(C)C3=CC[C@]12C)C(C)C [K3] | potent at dosage low than 2.5 or 5.0 | immunity enhancement activities
C=C(CCC(C(=O)O)C1C(O)CC2(C)C3=CCC4C(C)(CCC(O)C4(C)C)C3=CCC12C)C(C)C (stereo not shown) [K4] | potent at dosage low than 2.5 or 5.0 | immunity enhancement activities
